The text below walks through data of patent US11370798B2 (Vertex Pharmaceuticals Incorporated, priority 2012, dated 2022).

Molecules are shown by their SMILES.

The experiment concerns HCT116 colorectal cancer cells. As to the kind of experiment: Cisplatin sensitization assay (96 h cell viability MTS).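 Further: Test-compound concentration that lowers the Cisplatin IC50 by a set fold.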 The conditions noted are these: compound and Cisplatin added simultaneously, Cisplatin sensitization value. Format: cell-based. Put shortly: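 Compound and cisplatin added together as a full matrix of 2-fold serial dilutions from a top final concentration of 10 μM; cells incubated 96 h at 37° C, 5% CO2. Viability then read by MTS after 1 h further incubation; sensitization value reported in μM bins.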

On to `CN1CCC(Oc2ccncc2NC(=O)c2c(N)nn3cc(CC#N)cnc23)CC1` [I-O-23, 2-amino-6-(cyanomethyl)-N-(4-((1-methylpiperidin-4-yl)oxy)pyridin-3-yl)pyrazolo[1,5-a]pyrimidine-3-carboxamide], for which the “Cisplatin Sensitization Assay” value is “+++ (Cisplatin sensitization value of <0.02 μM)”.

With `CN(C)CCOc1ccncc1NC(=O)c1c(N)nn2cc(CC#N)cnc12` [I-O-24, 2-amino-6-(cyanomethyl)-N-(4-(2-(dimethylamino)ethoxy)pyridin-3-yl)pyrazolo[1,5-a]pyrimidine-3-carboxamide], the “Cisplatin Sensitization Assay” value is on record as “++ (Cisplatin sensitization value>0.02 μM but <0.2 μM)”. On to `N#CCc1cnc2c(C(=O)Nc3cnccc3Oc3ccccc3)c(N)nn2c1` [I-O-25, 2-amino-6-(cyanomethyl)-N-(4-phenoxypyridin-3-yl)pyrazolo[1,5-a]pyrimidine-3-carboxamide], for which the “Cisplatin Sensitization Assay” value is on record as “+++ (Cisplatin sensitization value of <0.02 μM)”. To `COc1ccncc1NC(=O)c1c(N)nn2cc(CC#N)cnc12` [I-O-26, 2-amino-6-(cyanomethyl)-N-(4-methoxypyridin-3-yl)pyrazolo[1,5-a]pyrimidine-3-carboxamide] belongs “++ (Cisplatin sensitization value>0.02 μM but <0.2 μM)”; to `COc1cc(Cl)ncc1NC(=O)c1c(N)nn2cc(CC#N)cnc12` [I-O-27, 2-amino-N-(6-chloro-4-methoxypyridin-3-yl)-6-(cyanomethyl)pyrazolo[1,5-a]pyrimidine-3-carboxamide], “++ (Cisplatin sensitization value>0.02 μM but <0.2 μM)”; to `CCOc1ccncc1NC(=O)c1c(N)nn2cc(CC#N)cnc12` [I-O-28, 2-amino-6-(cyanomethyl)-N-(4-ethoxypyridin-3-yl)pyrazolo[1,5-a]pyrimidine-3-carboxamide], “+++ (Cisplatin sensitization value of <0.02 μM)”. For `COCCOc1ccncc1NC(=O)c1c(N)nn2cc(CC#N)cnc12` [I-O-29, 2-amino-6-(cyanomethyl)-N-(4-(2-methoxyethoxy)pyridin-3-yl)pyrazolo[1,5-a]pyrimidine-3-carboxamide], the “Cisplatin Sensitization Assay” value was “+++ (Cisplatin sensitization value of <0.02 μM)”. Next, `N#CCc1cnc2c(C(=O)Nc3cnccc3OC3CCOCC3)c(N)nn2c1` [I-O-30, 2-amino-6-(cyanomethyl)-N-(4-((tetrahydro-2H-pyran-4-yl)oxy)pyridin-3-yl)pyrazolo[1,5-a]pyrimidine-3-carboxamide]: “+++ (Cisplatin sensitization value of <0.02 μM)”; `N#CCc1cnc2c(C(=O)Nc3cnccc3O[C@@H]3CCOC3)c(N)nn2c1` [I-O-31, (R)-2-amino-6-(cyanomethyl)-N-(4-((tetrahydrofuran-3-yl)oxy)pyridin-3-yl)pyrazolo[1,5-a]pyrimidine-3-carboxamide]: “+++ (Cisplatin sensitization value of <0.02 μM)”. Regarding `N#CCc1cnc2c(C(=O)Nc3cnccc3OCC3CC3)c(N)nn2c1` [I-O-32, 2-amino-6-(cyanomethyl)-N-(4-(cyclopropylmethoxy)pyridin-3-yl)pyrazolo[1,5-a]pyrimidine-3-carboxamide], the “Cisplatin Sensitization Assay” value was “+++ (Cisplatin sensitization value of <0.02 μM)”. Next, `N#CCc1cnc2c(C(=O)Nc3cnccc3OCCO)c(N)nn2c1` [I-O-33, 2-amino-6-(cyanomethyl)-N-(4-(2-hydroxyethoxy)pyridin-3-yl)pyrazolo[1,5-a]pyrimidine-3-carboxamide]: “++ (Cisplatin sensitization value>0.02 μM but <0.2 μM)”; `N#CCc1cnc2c(C(=O)Nc3cnccc3OCC(F)(F)F)c(N)nn2c1` [I-O-34, 2-amino-6-(cyanomethyl)-N-(4-(2,2,2-trifluoroethoxy)pyridin-3-yl)pyrazolo[1,5-a]pyrimidine-3-carboxamide]: “++ (Cisplatin sensitization value>0.02 μM but <0.2 μM)”; `CC(C)Oc1ccncc1NC(=O)c1c(N)nn2cc(CC#N)cnc12` [I-O-35, 2-amino-6-(cyanomethyl)-N-(4-isopropoxypyridin-3-yl)pyrazolo[1,5-a]pyrimidine-3-carboxamide]: “+++ (Cisplatin sensitization value of <0.02 μM)”. `N#CCc1cnc2c(C(=O)Nc3cnccc3OC3CCC3)c(N)nn2c1` [I-O-36, 2-amino-6-(cyanomethyl)-N-(4-cyclobutoxypyridin-3-yl)pyrazolo[1,5-a]pyrimidine-3-carboxamide]: the “Cisplatin Sensitization Assay” value is “+++ (Cisplatin sensitization value of <0.02 μM)”.

With `N#CCc1cnc2c(C(=O)Nc3cnccc3OC3COC3)c(N)nn2c1` [I-O-38, 2-amino-6-(cyanomethyl)-N-(4-(oxetan-3-yloxy)pyridin-3-yl)pyrazolo[1,5-a]pyrimidine-3-carboxamide], the “Cisplatin Sensitization Assay” value is “+++ (Cisplatin sensitization value of <0.02 μM)”. Turning to `N#CCc1cnc2c(C(=O)Nc3cnccc3OC3CCCCC3)c(N)nn2c1` [I-O-39, 2-amino-6-(cyanomethyl)-N-(4-(cyclohexyloxy)pyridin-3-yl)pyrazolo[1,5-a]pyrimidine-3-carboxamide], the “Cisplatin Sensitization Assay” value is “+++ (Cisplatin sensitization value of <0.02 μM)”.

With `N#CCc1cnc2c(C(=O)Nc3cnccc3OCCCO)c(N)nn2c1` [I-O-40, 2-amino-6-(cyanomethyl)-N-(4-(3-hydroxypropoxy)pyridin-3-yl)pyrazolo[1,5-a]pyrimidine-3-carboxamide], the “Cisplatin Sensitization Assay” value is “++ (Cisplatin sensitization value>0.02 μM but <0.2 μM)”. Regarding `N#CCc1cnc2c(C(=O)Nc3cnccc3OC3CCCOC3)c(N)nn2c1` (stereo not shown) [I-O-41, 2-amino-6-(cyanomethyl)-N-(4-((tetrahydro-2H-pyran-3-yl)oxy)pyridin-3-yl)pyrazolo[1,5-a]pyrimidine-3-carboxamide], the “Cisplatin Sensitization Assay” value was “+++ (Cisplatin sensitization value of <0.02 μM)”. Regarding `N#CCc1cnc2c(C(=O)Nc3cnccc3O[C@H]3CCOC3)c(N)nn2c1` [I-O-42, (S)-2-amino-6-(cyanomethyl)-N-(4-((tetrahydrofuran-3-yl)oxy)pyridin-3-yl)pyrazolo[1,5-a]pyrimidine-3-carboxamide], the “Cisplatin Sensitization Assay” value was “+++ (Cisplatin sensitization value of <0.02 μM)”. On to `N#CCc1cnc2c(C(=O)Nc3cnccc3OC3CCCC3)c(N)nn2c1` [I-O-43, 2-amino-6-(cyanomethyl)-N-(4-(cyclopentyloxy)pyridin-3-yl)pyrazolo[1,5-a]pyrimidine-3-carboxamide], for which the “Cisplatin Sensitization Assay” value was “+++ (Cisplatin sensitization value of <0.02 μM)”.

On to `Nc1nn2cc(F)cnc2c1C(=O)Nc1cnccc1OC1CC[S+]([O-])CC1` (stereo not shown) [I-O-44, 2-amino-6-fluoro-N-(4-((1-oxidotetrahydro-2H-thiopyran-4-yl)oxy)pyridin-3-yl)pyrazolo[1,5-a]pyrimidine-3-carboxamide], for which the “Cisplatin Sensitization Assay” value was “++ (Cisplatin sensitization value>0.02 μM but <0.2 μM)”. In the case of `Nc1nn2cc(F)cnc2c1C(=O)Nc1cnccc1OC1CCS(=O)(=O)CC1` [I-O-45, 2-amino-N-(4-((1,1-dioxidotetrahydro-2H-thiopyran-4-yl)oxy)pyridin-3-yl)-6-fluoropyrazolo[1,5-a]pyrimidine-3-carboxamide], the “Cisplatin Sensitization Assay” value is given as “+++ (Cisplatin sensitization value of <0.02 μM)”.

On to `CN1CCC(Oc2c(Cl)cncc2NC(=O)c2c(N)nn3cc(Cl)cnc23)CC1` [I-O-46, 2-amino-6-chloro-N-(5-chloro-4-((1-methylpiperidin-4-yl)oxy)pyridin-3-yl)pyrazolo[1,5-a]pyrimidine-3-carboxamide], for which the “Cisplatin Sensitization Assay” value was “+ (Cisplatin sensitization value>0.2 μM but <5 μM)”.

`CN(C)CCOCCOc1ccncc1NC(=O)c1c(N)nn2cc(Cl)cnc12` [I-O-47, 2-amino-6-chloro-N-(4-(2-(2-(dimethylamino)ethoxy)ethoxy)pyridin-3-yl)pyrazolo[1,5-a]pyrimidine-3-carboxamide]: the “Cisplatin Sensitization Assay” value is listed as “+ (Cisplatin sensitization value>0.2 μM but <5 μM)”. As to `CN(C)CCOc1ccncc1NC(=O)c1c(N)nn2cc(Cl)cnc12` [I-O-48, 2-amino-6-chloro-N-(4-(2-(dimethylamino)ethoxy)pyridin-3-yl)pyrazolo[1,5-a]pyrimidine-3-carboxamide], the “Cisplatin Sensitization Assay” value is “++ (Cisplatin sensitization value>0.02 μM but <0.2 μM)”.

`CN1CCC[C@@H]1COc1ccncc1NC(=O)c1c(N)nn2cc(Cl)cnc12` [I-O-49, (R)-2-amino-6-chloro-N-(4-((1-methylpyrrolidin-2-yl)methoxy)pyridin-3-yl)pyrazolo[1,5-a]pyrimidine-3-carboxamide]: the “Cisplatin Sensitization Assay” value was “+ (Cisplatin sensitization value>0.2 μM but <5 μM)”. Regarding `CN1CCC[C@H]1COc1ccncc1NC(=O)c1c(N)nn2cc(Cl)cnc12` [I-O-50, (S)-2-amino-6-chloro-N-(4-((1-methylpyrrolidin-2-yl)methoxy)pyridin-3-yl)pyrazolo[1,5-a]pyrimidine-3-carboxamide], the “Cisplatin Sensitization Assay” value was “+ (Cisplatin sensitization value>0.2 μM but <5 μM)”. Next, `CN(C)CCCOc1ccncc1NC(=O)c1c(N)nn2cc(Cl)cnc12` [I-O-52, 2-amino-6-chloro-N-(4-(3-(dimethylamino)propoxy)pyridin-3-yl)pyrazolo[1,5-a]pyrimidine-3-carboxamide]: “+ (Cisplatin sensitization value>0.2 μM but <5 μM)”. Take `Nc1nn2cc(Cl)cnc2c1C(=O)Nc1cnccc1OCCCO` [I-O-53, 2-amino-6-chloro-N-(4-(3-hydroxypropoxy)pyridin-3-yl)pyrazolo[1,5-a]pyrimidine-3-carboxamide]: the “Cisplatin Sensitization Assay” value is given as “+++ (Cisplatin sensitization value of <0.02 μM)”. For the compound `Nc1nn2cc(Cl)cnc2c1C(=O)Nc1cnccc1O[C@@H]1CCOC1` [I-O-54, (R)-2-amino-6-chloro-N-(4-((tetrahydrofuran-3-yl)oxy)pyridin-3-yl)pyrazolo[1,5-a]pyrimidine-3-carboxamide], the “Cisplatin Sensitization Assay” value is reported as “+++ (Cisplatin sensitization value of <0.02 μM)”.

Regarding `COCCOc1ccncc1NC(=O)c1c(N)nn2cc(Cl)cnc12` [I-O-55, 2-amino-6-chloro-N-(4-(2-methoxyethoxy)pyridin-3-yl)pyrazolo[1,5-a]pyrimidine-3-carboxamide], the “Cisplatin Sensitization Assay” value is reported as “++ (Cisplatin sensitization value>0.02 μM but <0.2 μM)”.
